In brackets after ≈: the same amount, converted by molar mass. Activity calls are given as the source filed them. No cut-off for these calls is given here.
Columns and labels:
[1] = Induction of apoptosis in human GSC3 cells assessed as early apoptotic cells at 5 ug/ml after 8 hrs by Annexin V-FITC/propidium iodide staining based flow cytometric method (reference value: 0.186%); type: functional
[2] = Induction of apoptosis in human GSC3 cells assessed as early apoptotic cells at 1 ug/ml after 8 hrs by Annexin V-FITC/propidium iodide staining based flow cytometric method (reference value: 0.186%); type: functional
[3] = Induction of apoptosis in human GSC3 cells assessed as late apoptotic cells at 2 ug/ml after 8 hrs by Annexin V-FITC/propidium iodide staining based flow cytometric method (reference value: 0.603%); type: functional
[4] = test system: GSC3; assay: Cytotoxicity against human GSC3 cells assessed as cell shrinkage at 5 ug/ml measured after 8 hrs; type: functional, cell-based
[5] = Induction of apoptosis in human GSC3 cells assessed as viable cells at 1 ug/ml after 8 hrs by Annexin V-FITC/propidium iodide staining based flow cytometric method (reference value: 98.8%); type: functional; conditions: GSC-3, 8 h, read-out: Activity
[6] = test system: GSC3; assay: Growth inhibition of human GSC3 cells at 10 ug/ml; type: functional, cell-based
[7] = Induction of apoptosis in human GSC18 cells assessed as early apoptotic cells at 5 ug/ml after 8 hrs by Annexin V-FITC/propidium iodide staining based flow cytometric method (reference value: 7.73%); type: functional
[8] = test system: GSC18; assay: Inhibition of colony formation in human GSC18 cells assessed as reduction in numbers of clonal sphere at 5 ug/ml after 10 days by crystal violet staining based assay; type: functional, cell-based
[9] = Induction of apoptosis in human GSC18 cells assessed as viable cells at 5 ug/ml after 8 hrs by Annexin V-FITC/propidium iodide staining based flow cytometric method (reference value: 85.5%); type: functional; conditions: GSC18, 8 h, read-out: Activity
[10] = Cytotoxicity against human GSC12 cells after 72 hrs by MTS assay; type: functional, cell-based; conditions: GSC12, 72 h
[11] = test system: GSC18; assay: Cytotoxicity against human GSC18 cells assessed as cell detachment at 5 ug/ml measured after 8 hrs; type: functional, cell-based
[12] = Induction of apoptosis in human GSC3 cells assessed as early apoptotic cells at 2 ug/ml after 8 hrs by Annexin V-FITC/propidium iodide staining based flow cytometric method (reference value: 0.186%); type: functional
[13] = test system: GSC3; assay: Cytotoxicity against human GSC3 cells assessed as suppression of DNA synthesis at 5 ug/ml after 8 hrs by BrdU/DAPI staining based immunofluorescence assay; type: functional, cell-based
[14] = Induction of apoptosis in human GSC3 cells assessed as late apoptotic cells at 5 ug/ml after 8 hrs by Annexin V-FITC/propidium iodide staining based flow cytometric method (reference value: 0.603%); type: functional
[15] = test system: GSC18; assay: Cytotoxicity against human GSC18 cells assessed as suppression of DNA synthesis at 5 ug/ml after 8 hrs by BrdU/DAPI staining based immunofluorescence assay; type: functional, cell-based
[16] = test system: HEK-293T; assay: Cytotoxicity against human 293T cells after 72 hrs by MTS assay; type: cell-based
[17] = test system: GSC3; assay: Inhibition of colony formation in human GSC3 cells assessed as reduction in numbers of clonal sphere at 5 ug/ml after 10 days by crystal violet staining based assay; type: functional, cell-based
[18] = test system: GSC3; assay: Inhibition of colony formation in human GSC3 cells assessed as clonal sphere damage at 5 ug/ml after 10 days by crystal violet staining based assay; type: functional, cell-based
[19] = Cytotoxicity against human GSC3 cells after 72 hrs by MTS assay; type: functional, cell-based; conditions: GSC-3, 72 h
[20] = Induction of apoptosis in human GSC3 cells assessed as viable cells at 2 ug/ml after 8 hrs by Annexin V-FITC/propidium iodide staining based flow cytometric method (reference value: 98.8%); type: functional; conditions: GSC-3, 8 h, read-out: Activity
[21] = Induction of apoptosis in human GSC18 cells assessed as late apoptotic cells at 1 ug/ml after 8 hrs by Annexin V-FITC/propidium iodide staining based flow cytometric method (reference value: 2.54%); type: functional
[22] = test system: GSC3; assay: Cytotoxicity against human GSC3 cells assessed as cell rounding at 5 ug/ml measured after 8 hrs; type: functional, cell-based
[23] = Induction of apoptosis in human GSC18 cells assessed as late apoptotic cells at 1 ug/ml after 8 hrs by Annexin V-FITC/propidium iodide staining based flow cytometric method (reference value: 4.25%); type: functional
[24] = test system: GSC18; assay: Growth inhibition of human GSC18 cells at 10 ug/ml; type: functional, cell-based
[25] = Induction of apoptosis in human GSC18 cells assessed as late apoptotic cells at 5 ug/ml after 8 hrs by Annexin V-FITC/propidium iodide staining based flow cytometric method (reference value: 4.25%); type: functional
[26] = Induction of apoptosis in human GSC18 cells assessed as late apoptotic cells at 5 ug/ml after 8 hrs by Annexin V-FITC/propidium iodide staining based flow cytometric method (reference value: 2.54%); type: functional
[27] = Induction of apoptosis in human GSC18 cells assessed as viable cells at 1 ug/ml after 8 hrs by Annexin V-FITC/propidium iodide staining based flow cytometric method (reference value: 85.5%); type: functional; conditions: GSC18, 8 h, read-out: Activity
[28] = Induction of apoptosis in human GSC3 cells assessed as late apoptotic cells at 5 ug/ml after 8 hrs by Annexin V-FITC/propidium iodide staining based flow cytometric method (reference value: 0.373%); type: functional
[29] = Induction of apoptosis in human GSC3 cells assessed as late apoptotic cells at 1 ug/ml after 8 hrs by Annexin V-FITC/propidium iodide staining based flow cytometric method (reference value: 0.603%); type: functional
[30] = Induction of apoptosis in human GSC18 cells assessed as early apoptotic cells at 2 ug/ml after 8 hrs by Annexin V-FITC/propidium iodide staining based flow cytometric method (reference value: 7.73%); type: functional
[31] = Induction of apoptosis in human GSC3 cells assessed as late apoptotic cells at 1 ug/ml after 8 hrs by Annexin V-FITC/propidium iodide staining based flow cytometric method (reference value: 0.373%); type: functional
[32] = Induction of apoptosis in human GSC3 cells assessed as late apoptotic cells at 2 ug/ml after 8 hrs by Annexin V-FITC/propidium iodide staining based flow cytometric method (reference value: 0.373%); type: functional
[33] = Induction of apoptosis in human GSC18 cells assessed as viable cells at 2 ug/ml after 8 hrs by Annexin V-FITC/propidium iodide staining based flow cytometric method (reference value: 85.5%); type: functional; conditions: GSC18, 8 h, read-out: Activity
[34] = test system: GSC18; assay: Cytotoxicity against human GSC18 cells assessed as cell rounding at 5 ug/ml measured after 8 hrs; type: functional, cell-based
[35] = Induction of apoptosis in human GSC3 cells assessed as viable cells at 5 ug/ml after 8 hrs by Annexin V-FITC/propidium iodide staining based flow cytometric method (reference value: 98.8%); type: functional; conditions: GSC-3, 8 h, read-out: Activity
[36] = test system: GSC3; assay: Induction of apoptosis in human GSC3 cells assessed as increase in cleaved caspase-3 at 5 ug/ml after 8 hrs by DAPI staining based immunofluorescence assay; type: functional, cell-based
[37] = test system: GSC18; assay: Cytotoxicity against human GSC18 cells assessed as cell shrinkage at 5 ug/ml measured after 8 hrs; type: functional, cell-based
[38] = Cytotoxicity against human GSC18 cells after 72 hrs by MTS assay; type: functional, cell-based; conditions: GSC18, 72 h
[39] = test system: GSC18; assay: Inhibition of colony formation in human GSC18 cells assessed as clonal sphere damage at 5 ug/ml after 10 days by crystal violet staining based assay; type: functional, cell-based
[40] = test system: GSC12; assay: Growth inhibition of human GSC12 cells at 10 ug/ml; type: functional, cell-based
[41] = Induction of apoptosis in human GSC18 cells assessed as late apoptotic cells at 2 ug/ml after 8 hrs by Annexin V-FITC/propidium iodide staining based flow cytometric method (reference value: 4.25%); type: functional
[42] = Induction of apoptosis in human GSC18 cells assessed as late apoptotic cells at 2 ug/ml after 8 hrs by Annexin V-FITC/propidium iodide staining based flow cytometric method (reference value: 2.54%); type: functional
[43] = Cytotoxicity against human HAC cells after 72 hrs by MTS assay; type: cell-based
[44] = Induction of apoptosis in human GSC18 cells assessed as early apoptotic cells at 1 ug/ml after 8 hrs by Annexin V-FITC/propidium iodide staining based flow cytometric method (reference value: 7.73%); type: functional
[45] = test system: GSC18; assay: Induction of apoptosis in human GSC18 cells assessed as increase in cleaved caspase-3 at 5 ug/ml after 8 hrs by DAPI staining based immunofluorescence assay; type: functional, cell-based
[46] = test system: GSC3; assay: Cytotoxicity against human GSC3 cells assessed as cell detachment at 5 ug/ml measured after 8 hrs; type: functional, cell-based

C=C1C(=O)O[C@@H]2/C=C(\C)CCC/C(C)=C/C[C@@H]12
Activity [1]: 3.98%
Activity [2]: 0.096%
Activity [3]: 3.53%
Activity [4]: Active
viability at 1 µg/mL [5]: 94.7%
growth inhibition (GI) [6]: Active
Activity [7]: 4.1%
inhibition [8]: Active
viability at 5 µg/mL [9]: 39.6%
IC50 [10]: 2.61 µg/mL (≈ 11.2 µM)
Activity [11]: Active
Activity [12]: 1.06%
Activity [13]: Active
Activity [14]: 54.3%
Activity [15]: Active
IC50 [16]: 7.61 µg/mL (≈ 32.8 µM)
inhibition [17]: Active
inhibition [18]: Active
IC50 [19]: 2.8 µg/mL (≈ 12.1 µM)
viability at 2 µg/mL [20]: 91.4%
Activity [21]: 30%
Activity [22]: Active
Activity [23]: 17.3%
growth inhibition (GI) [24]: Active
Activity [25]: 21.1%
Activity [26]: 35.2%
viability at 1 µg/mL [27]: 51.2%
Activity [28]: 22.4%
Activity [29]: 0.942%
Activity [30]: 3.28%
Activity [31]: 4.3%
Activity [32]: 4%
viability at 2 µg/mL [33]: 57.5%
Activity [34]: Active
viability at 5 µg/mL [35]: 19.2%
Activity [36]: Active
Activity [37]: Active
IC50 [38]: 1.07 µg/mL (≈ 4.61 µM)
inhibition [39]: Active
growth inhibition (GI) [40]: Active
Activity [41]: 22.1%
Activity [42]: 17.1%
IC50 [43]: 7.42 µg/mL (≈ 31.9 µM)
Activity [44]: 1.54%
Activity [45]: Active
Activity [46]: Active
